Experimental findings from patent publication US12066428B2, “Cell-substrate impedance monitoring of cancer cells” (Agilent Technologies, Inc., priority 2016, dated 2024) are described below.

Holding throughout (assay type): cell-based, human
The test system of test [1] is A549 cells. Description: A549 target cells incubated with inhibitors alone (RT-CES control). The following applies: A549 target cells without NK-92. The source says: Inhibition of NK-mediated cytolysis of target cells by agents which block the signaling pathways leading to cytotoxicity. The interaction of NK receptors at the cell membrane by target cells leads to the activation of signal transduction machinery which results in cytolysis of target cells (Vivier et al., 2004). One of the key signaling cascades which regulate the fusion of perforin and granzyme containing secretory granules at the NK/target cell synaptic junction is the phosphatidyl-inositol-3-kinase (PI3K), Rac and mitogen activated protein kinase 1 (Erk) pathway (Djeu et al., 2002; Vivier et al., 2004). In order to determine the specificity of the signaling pathways in regulating NK-mediated cytotoxicity, we therefore sought to utilize specific inhibitors of the PI3K and Erk pathways. NK-92 cells were incubated with both the PI3K inhibitor Wortmannin and the Erk pathway inhibitor PD98059 or DMSO as a control and then added to A549 target cells. […] We calculated percent inhibition of cytolysis for both inhibitors at different time points after NK addition. […] In summary, the experiments shown here clearly establish that the RT-CES system can be used to monitor NK-mediated cytotoxic activity against a variety of different cell lines.

In test [2] the test system is NK-92-mediated cytolysis of A549 cells. Description: Inhibition of NK-92-mediated cytolysis by signaling pathway inhibitors (RT-CES). To be noted: NK-92 pre-incubated with inhibitor, E/T 16:1. As to the method:
Cytolytic analysis. Target cells were seeded into the wells of either 16-well or 96-well E-plate in 100 μL of media. Cell growth was dynamically monitored using the RT-CES system for a period of 24-34 hours, depending on the experiment until they reached log growth phase and formed a monolayer. Effector cells at different concentrations were then directly added into individual wells containing the target cells. For background control, effector cells were added to a well without target cells. After addition of the effector cells, the E-plate was returned to the e-plate station and the measurements were automatically collected by the analyzer every 15 minutes for up to 20 hours.
Data analysis. The integrated software is able to display entire history of the experiment from seeding the cells to termination of cytolysis. […] The cell index here is determined by calculating, for each measurement frequency f, the relative-change (Relative change (f)=(Rcell (f)−Rbackground(f))/Rbackground(f)) in resistance (a component of impedance) of a well when target cells are present in the well (Rcell (f)) with respect to background resistance (Rbackground) of the well when no cell is present and only cell culture medium is in the well, and then finding the maximum relative-change in resistance for all frequencies measured (Cell Index=max {Relative change (f)} for all measurement frequencies). […]

The subject of another test is H460 cells. Description: Time-dependent cell index of drug-treated cells (cell-substrate impedance).
For test [3], the system named is A549 cells. Nature of the test: RT-CES dynamic monitoring of drug interaction with target cells. To be noted: A549, highest concentration; cells later recover and re-proliferate. The method, then: Drug Treatment and Cytotoxicity Assessment.
In order to observe the kinetics of drug interaction with target cells, A549 non-small lung cancer cells were seeded in ACEA 96× E-plate™ and continuously monitored until the cells reached the log growth phase at which point different concentrations of paclitaxel were added to the cells at the indicated final concentration. […] While it remains to be determined if this phenomenon is due to metabolism and inactivation of paclitaxel or due to the emergence of paclitaxel-resistant subpopulation, this experiment clearly exemplifies the tremendous advantage of real-time measurement which is offered by the RT-CES system and allows the user to the opportunity to observe and assess the entire history of drug interaction with the target cells which provides further information in addition to cell viability or cytotoxicity. The phenomenon observed in FIG. 20A would've been easily missed by traditional single-point assays such as MTT.
Yet another major advantage of using the RT-CES system to continually monitor the interaction of drugs with target cells is that the user can obtain insight into the mechanism of action of the drug of interest. […]

Experimental for H460 cells: The device was positioned on a device station that was located in an incubator maintaining conditions of 37° C. and 5% CO2. The cells were cultured and treated at their exponential growth phase with different concentrations of paclitaxel. The dynamic response of the cells to different doses of paclitaxel was monitored by monitoring cell-substrate impedance in real time every 15 minutes for 50 hours after treatment using a cell-substrate impedance monitoring system. The cell-substrate impedance monitoring system calculated the cell index at each time point monitored and plotted the cell index as a function of time.
The device was positioned on a device station that was located in an incubator maintaining conditions of 37 degrees C. and 5% CO2.

In the case of `COc1cccc(-c2cc(=O)c3ccccc3o2)c1N` [PD98059], the “effect of inhibitor alone on A549 baseline” value in the test on A549 cells [1] is listed as “minimal effect on the baseline”. For the same compound, the “effect on NK-92-mediated cytolysis of A549 cells” value in test [2] is listed as “dose-dependently inhibited”.

Consider `CC(=O)O[C@H]1C(=O)[C@@]2(C)[C@H]([C@H](OC(=O)c3ccccc3)[C@]3(O)C[C@H](OC(=O)[C@H](O)[C@@H](NC(=O)c4ccccc4)c4ccccc4)C(C)=C1C3(C)C)[C@]1(OC(C)=O)CO[C@@H]1C[C@@H]2O` [paclitaxel], for which, in the test on H460 cells (H460, 33 nanomolar), the “time over which cell index exhibited a near-constant value” is on record as “about 15 hours”. For the same compound, the “cell index response after compound addition” value with H460 cells (H460, concentrations between 67 nanomolar and 500 nanomolar) is “gradual decrease in cell index after compound addition”. Further, the “effect on A549 cells (Cell Index trace)” value in the test on A549 cells [3] was “initially induces a cytotoxic effect”.
